pIC50: −log10 of the molar value. Activity calls are given as the source filed them. The rule behind the calls is not given here.
Tests used:
CHO [1] = assay: Agonist activity at human GHSR expressed in CHO cells at maximum concentration incubated for 60 min by FLIPR assay relative to control; type: cell-based; conditions: filed as agonist
CHO [2] = assay: Agonist activity at monkey GHSR expressed in CHO cells at maximum concentration incubated for 60 min by FLIPR assay relative to control; type: cell-based; conditions: Macaca mulatta, filed as agonist
[3] = Oral bioavailability in male Sprague-Dawley rat at 2 mg/kg administered as single dose measured after 4 hrs; type: ADME, organism-based; conditions: in vivo
Rattus norvegicus [4] = assay: Induction of growth hormone level in Juvenile Sprague-Dawley rat blood at 0.1 mg/kg, po administered as single dose measured after 20 mins by ELISA method (reference value: 29.1+/-8.6 ng/mL); type: functional
Rattus norvegicus [5] = assay: Induction of growth hormone level in Juvenile Sprague-Dawley rat blood at 0.1 mg/kg, po administered as single dose measured after 40 mins by ELISA method (reference value: 40.1+/-11.0 ng/mL); type: functional
Rattus norvegicus [6] = assay: Induction of growth hormone level in Juvenile Sprague-Dawley rat blood at 0.2 mg/kg, po administered as single dose measured after 10 mins by ELISA method (reference value: 23.2+/-5.6 ng/mL); type: functional
Rattus norvegicus [7] = assay: Induction of growth hormone level in Juvenile Sprague-Dawley rat blood at 0.2 mg/kg, po administered as single dose measured after 1 hr by ELISA method (reference value: 45.2+/-12.5 ng/mL); type: functional
Rattus norvegicus [8] = assay: Induction of growth hormone level in Juvenile Sprague-Dawley rat blood at 0.2 mg/kg, po administered as single dose measured after 4 hrs by ELISA method (reference value: 32.5+/-4.5 ng/mL); type: functional
Rattus norvegicus [9] = assay: Induction of growth hormone level in Juvenile Sprague-Dawley rat blood by measuring AUC(0 to 40 mins) at 0.2 mg/kg, po administered as single dose by ELISA method (reference value: 20.2+/-4.3 ng/mL); type: functional, organism-based
Rattus norvegicus [10] = assay: Induction of growth hormone level in adult Sprague-Dawley rat blood by measuring AUC(0 to 40 mins) at 0.1 mg/kg, po administered as single dose by ELISA method (reference value: 7.0+/-1.7 ng/mL); type: functional, organism-based
Rattus norvegicus [11] = assay: Induction of growth hormone level in adult Sprague-Dawley rat blood at 0.2 mg/kg, po administered as single dose measured immediately by ELISA method (reference value: 12.6+/-4.4 ng/mL); type: functional
Rattus norvegicus [12] = assay: Induction of growth hormone level in adult Sprague-Dawley rat blood by measuring AUC(0 to 40 mins) at 0.2 mg/kg, po administered as single dose by ELISA method (reference value: 7.0+/-1.7 ng/mL); type: functional, organism-based
Rattus norvegicus [13] = assay: Induction of growth hormone level in 4 week-old male Sprague-Dawley rat assessed as increase in body length at 2.5 mg/kg, po measured after 10 days; type: functional, organism-based; conditions: time 10.0 day
Rattus norvegicus [14] = assay: Induction of growth hormone level in 6 week-old male Sprague-Dawley rat assessed as increase in body length at 2.5 mg/kg, po measured after 10 days; type: functional, organism-based; conditions: time 10.0 day
[15] = Volume of distribution in male monkey at 0.5 mg/kg, iv administered as single dose measured after 4 hrs; type: ADME, organism-based, Macaca mulatta; conditions: rhesus monkey, in vivo
[16] = Oral bioavailability in male dog at 2 mg/kg administered as single dose measured after 4 hrs; type: ADME, organism-based, Canis lupus familiaris; conditions: in vivo
[17] = Clearance in male mouse plasma at 1 mg/kg, iv administered as single dose measured after 4 hrs; type: ADME, organism-based
[18] = Cmax in male mouse at 2 mg/kg, po administered as single dose measured after 4 hrs; type: ADME, organism-based; conditions: in vivo
[19] = Oral bioavailability in male mouse at 2 mg/kg administered as single dose measured after 4 hrs; type: ADME, organism-based; conditions: in vivo
[20] = Metabolic stability in human liver microsome assessed as intrinsic clearance at 1 uM measured upto 60 mins in presence of NADPH by LC-MS/MS analysis; type: ADME; conditions: liver microsomes, read-out: CLH
[21] = Metabolic stability in monkey liver microsome assessed as hepatic clearance at 1 uM measured upto 60 mins in presence of NADPH by LC-MS/MS analysis; type: ADME, Macaca mulatta; conditions: rhesus monkey, liver microsomes, read-out: CLH
[22] = Metabolic stability in mouse liver microsome assessed as half life at 1 uM measured upto 60 mins in presence of NADPH by LC-MS/MS analysis; type: ADME; conditions: liver microsomes
[23] = Plasma protein binding in monkey assessed as unbound fraction measured after 6 hrs by dialysis method; type: ADME, cell-free, Macaca mulatta; conditions: rhesus monkey
Cytochrome P450 3A4 = Cytochrome P450 3A4 (Homo sapiens, UniProt P08684); assay: Inhibition of CYP3A4 in human liver microsome using testosterone as substrate incubated for 5 min in presence of NADPH by UPLC-MS/MS analysis; type: ADME, microsomes
Sequence of Cytochrome P450 3A4 (P08684 whole entry): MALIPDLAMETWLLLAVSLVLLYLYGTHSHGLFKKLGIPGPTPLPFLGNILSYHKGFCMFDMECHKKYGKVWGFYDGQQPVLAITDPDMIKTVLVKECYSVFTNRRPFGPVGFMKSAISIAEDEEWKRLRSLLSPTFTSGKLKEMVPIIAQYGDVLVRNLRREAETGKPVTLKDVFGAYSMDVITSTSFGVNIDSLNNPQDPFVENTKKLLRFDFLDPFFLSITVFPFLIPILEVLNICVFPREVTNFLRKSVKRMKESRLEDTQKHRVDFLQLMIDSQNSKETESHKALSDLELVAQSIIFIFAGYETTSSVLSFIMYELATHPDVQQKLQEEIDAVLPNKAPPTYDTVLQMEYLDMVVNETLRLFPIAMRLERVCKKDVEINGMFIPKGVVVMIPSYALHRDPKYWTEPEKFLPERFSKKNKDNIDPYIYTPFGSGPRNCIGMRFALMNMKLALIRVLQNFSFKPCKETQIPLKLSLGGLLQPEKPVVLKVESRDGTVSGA

Cytochrome P450 1A2 = molecular target: T1, Cytochrome P450 1A2 (Homo sapiens, UniProt P05177); assay: Inhibition of CYP1A2 in human liver microsome incubated for 5 min in presence of NADPH by UPLC-MS/MS analysis; type: ADME, microsomes
T1 sequence (P05177 whole entry): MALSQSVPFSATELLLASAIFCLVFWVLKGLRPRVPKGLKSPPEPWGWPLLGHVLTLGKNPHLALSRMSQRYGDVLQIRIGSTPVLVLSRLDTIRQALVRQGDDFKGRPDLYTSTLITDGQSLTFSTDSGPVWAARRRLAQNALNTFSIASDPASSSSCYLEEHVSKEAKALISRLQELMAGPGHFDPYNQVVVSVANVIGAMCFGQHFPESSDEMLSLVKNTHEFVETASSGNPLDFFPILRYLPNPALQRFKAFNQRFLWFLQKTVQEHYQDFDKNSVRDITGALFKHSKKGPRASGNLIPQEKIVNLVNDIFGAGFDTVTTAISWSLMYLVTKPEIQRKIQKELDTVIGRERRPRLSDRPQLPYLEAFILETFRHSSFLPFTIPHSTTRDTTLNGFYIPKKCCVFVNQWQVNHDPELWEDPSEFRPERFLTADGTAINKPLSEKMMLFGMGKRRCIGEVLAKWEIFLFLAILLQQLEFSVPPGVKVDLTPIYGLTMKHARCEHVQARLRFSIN

[24] = molecular target: T2, 5-hydroxytryptamine receptor 3A (Homo sapiens, UniProt P46098); assay: Inhibition of human HTR3A by fluorimetry analysis
T2 sequence (P46098 whole entry): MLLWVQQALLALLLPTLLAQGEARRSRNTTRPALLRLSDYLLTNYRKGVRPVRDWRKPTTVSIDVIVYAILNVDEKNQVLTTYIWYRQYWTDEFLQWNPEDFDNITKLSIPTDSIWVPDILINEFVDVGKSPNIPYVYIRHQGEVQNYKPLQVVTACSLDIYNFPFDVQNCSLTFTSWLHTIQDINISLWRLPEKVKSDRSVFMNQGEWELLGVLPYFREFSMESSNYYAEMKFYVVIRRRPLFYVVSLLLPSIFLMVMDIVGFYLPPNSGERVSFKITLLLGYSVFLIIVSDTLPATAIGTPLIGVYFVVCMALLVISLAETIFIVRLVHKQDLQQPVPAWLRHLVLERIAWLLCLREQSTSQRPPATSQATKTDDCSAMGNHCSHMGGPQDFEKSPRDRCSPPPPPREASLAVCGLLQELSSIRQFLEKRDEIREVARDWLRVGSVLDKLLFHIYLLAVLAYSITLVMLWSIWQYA

- bioavailability [3]: 16.7%
- Vd [15]: 2.36 L/kg
- bioavailability [16]: 43.6%
- clearance [17]: 124 mL/min/kg
- Cmax [18]: 125 ng/mL
- bioavailability [19]: 33.9%
- microsomal CLint at 1 µM [20]: 123 µL/min/mg
- CLint scaled at 1 µM [21]: 541 mL/min/kg
- half-life at 1 µM [22]: 4.2 min
- fraction unbound at 6 h [23]: 0.46
- pIC50 (Cytochrome P450 3A4): < 4.52
- pIC50 (Cytochrome P450 1A2): < 4.52
- pIC50 [24]: 5.51
Compound: CC(C)(N)C(=O)N[C@H](COCc1ccccc1)C(=O)N1CCC2=NN(C3CC3)C(=O)[C@]2(Cc2ccccc2)C1
- Activity (CHO [1]): 152%
- Activity (CHO [2]): 106%
- Activity (Rattus norvegicus [4]): 263.6 ng/mL
- Activity (Rattus norvegicus [5]): 74.5 ng/mL
- Activity (Rattus norvegicus [6]): 200.8 ng/mL
- Activity (Rattus norvegicus [7]): 45.9 ng/mL
- Activity (Rattus norvegicus [8]): 43.5 ng/mL
- AUC (Rattus norvegicus [9]): 102 ng·h/mL
- AUC (Rattus norvegicus [10]): 61 ng·h/mL
- Activity (Rattus norvegicus [11]): 22 ng/mL
- AUC (Rattus norvegicus [12]): 62.6 ng·h/mL
- Activity (Rattus norvegicus [13]): Active
- Activity (Rattus norvegicus [14]): Active

From ChEMBL document CHEMBL6103654, “Design, Biological Characterization, and Discovery of Capromorelin Derivatives as Oral Growth Hormone Secretagogue Receptor Type 1a Agonist for the Treatment of Growth Hormone Deficiency” (J Med Chem, 2025)
